BindingDB's records for doi:10.1016/j.bmcl.2007.02.075 (Bayer Research Center, 2007)

The compounds below were run against RAC-alpha serine/threonine-protein kinase (Homo sapiens, UniProt P31749) (assay: Inhibition of pAkt).
Sequence of RAC-alpha serine/threonine-protein kinase (P31749 whole entry): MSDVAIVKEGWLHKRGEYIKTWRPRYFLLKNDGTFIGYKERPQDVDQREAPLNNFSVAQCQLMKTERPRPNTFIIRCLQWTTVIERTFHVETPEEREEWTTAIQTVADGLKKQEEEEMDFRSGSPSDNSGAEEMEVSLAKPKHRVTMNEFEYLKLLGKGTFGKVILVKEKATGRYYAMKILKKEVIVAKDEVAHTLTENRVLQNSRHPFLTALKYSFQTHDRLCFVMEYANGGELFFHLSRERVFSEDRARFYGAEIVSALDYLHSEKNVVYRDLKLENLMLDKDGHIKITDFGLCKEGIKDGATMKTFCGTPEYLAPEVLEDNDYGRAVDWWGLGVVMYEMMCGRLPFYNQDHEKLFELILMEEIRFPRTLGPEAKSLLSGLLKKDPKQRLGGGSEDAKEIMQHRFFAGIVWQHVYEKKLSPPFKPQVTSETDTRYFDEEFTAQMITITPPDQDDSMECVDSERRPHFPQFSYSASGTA

Compound	IC50
CNC(=O)Nc1ccc(CNc2c(C(=O)Nc3ccc(SC(F)(F)F)cc3)cnn2C)cn1 [1-methyl-3-(5-((1-methyl-4-((4-(trifluoromethylthio)phenyl)carbamoyl)-1H-pyrazol-5-ylamino)methyl)pyridin-2-yl)urea]	0.015 µM
CCNC(=O)Nc1ccc(CNc2ncsc2C(=O)Nc2ccc3c(c2)OC(F)(F)O3)cn1 [1-(5-((5-((2,2-difluorobenzo[d][1,3]dioxol-5-yl)carbamoyl)thiazol-4-ylamino)methyl)pyridin-2-yl)-3-ethylurea]	0.081 µM
CNC(=O)Nc1ccc(CNc2ncsc2C(=O)Nc2ccc3c(c2)OC(F)(F)O3)cn1 [1-(5-((5-((2,2-difluorobenzo[d][1,3]dioxol-5-yl)carbamoyl)thiazol-4-ylamino)methyl)pyridin-2-yl)-3-methylurea]	0.024 µM
